Here are results for four compounds from patent US9133235B2, “Macrocyclic antagonists of the motilin receptor for treatment of gastrointestinal dysmotility disorders” (Ocera Therapeutics, Inc., priority 2006, dated 2015).

Where two headings read alike, the source gives them in different places.

Experiment [1] has as its target human motilin receptor (Homo sapiens, UniProt O43193). Briefly: Competitive radioligand binding assay (motilin receptor). Also noted: purchased PerkinElmer (SignalScreen) 6110544; host or cells: CHO cells, stably transfected; membranes. The gist of the method:
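Membranes from CHO cells stably expressing human motilin receptor were incubated 2 h at room temperature with [125I]-motilin (0.04-0.06 nM final) and compound (0.0050–10 μM) in Tris-HCl pH 7.4, MgCl2, EDTA, 0.1% BSA. Filter-bound counts were measured; 1 μM motilin defined non-specific binding; variable-slope non-linear regression.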

For experiment [2], the system named is strips of rabbit duodenum. Briefly: Rabbit duodenum contractility assay. As to conditions: pA2 from Schild plot, motilin dose response after 15 minute incubation. The method, then: D. Rabbit Duodenum Contractility Assay
Evaluation of compounds of the invention for ex vivo activity was conducted on strips of rabbit duodenum according to literature methods. (Van Assche, G.; Depoortere, I.; Thijs, T.; Janssens, J. J.; Peeters, T. L. Eur. J. Pharmacol. 1997, 337, 267-274; Matthijs, G.; Peeters, T. L.; Vantrappen, G. Naunyn-Schmiedeberg's Arch. Pharmacol. 1989, 339, 332-339.) Related methods can also be employed for this type of study. (Tomomasa, T.; Yagi, H.; Kimura, S.; Snape, W. J., Jr.; Hyman, P. E. Pediatric Res. 1989, 26, 458-461; Takanishi, H.; Yogo, K.; Ozaki, M.; Akima, M.; Koga, H.; Nabata, H. J. Pharm. Exp. Ther. 1995, 273, 624-628.)
Duodenal segments were vertically suspended in organ chambers of 10 mL filled with Krebs buffer and connected to an isotonic force transducer, with a preload of 1 g. After a stabilization period, the muscle strips were challenged with 10^−4 M acetylcholine and washed. This was repeated until a stable maximal contraction was obtained (2-3 times), with an interval of at least 20 minutes.
After a stable base line was reached, test compounds were added to the bath. After a 15 minute incubation, a dose response to motilin was recorded by adding logarithmically increasing concentrations of motilin to the bath (final concentration 10^−9 to 10^−6 M). A blank experiment (no test compound present) was also performed. At the end of the dose response curve, a supramaximal dose of acetylcholine (10^−4 M) was given and this response was used as a reference (100% contraction).
The results of experiments at different concentrations of test compound were combined and analyzed to derive the pA2 value from the Schild plot.

The mark [3] stands for this setting: [125I]-motilin competition, membranes of CHO cells with human motilin receptor, read-out: Ki.

Sequence of human motilin receptor (O43193 whole entry): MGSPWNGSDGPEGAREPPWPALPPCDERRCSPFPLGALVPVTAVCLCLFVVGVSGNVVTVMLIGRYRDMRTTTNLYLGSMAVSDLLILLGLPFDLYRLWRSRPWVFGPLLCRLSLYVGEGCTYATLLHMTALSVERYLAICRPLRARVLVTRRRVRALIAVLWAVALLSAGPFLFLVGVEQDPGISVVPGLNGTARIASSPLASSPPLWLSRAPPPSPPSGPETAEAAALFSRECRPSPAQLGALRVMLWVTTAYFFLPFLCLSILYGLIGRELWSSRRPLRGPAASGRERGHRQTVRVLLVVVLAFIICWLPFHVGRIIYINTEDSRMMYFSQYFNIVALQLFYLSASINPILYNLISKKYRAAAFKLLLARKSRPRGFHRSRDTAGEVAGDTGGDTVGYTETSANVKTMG

For the compound `CC(C)[C@H]1NC(=O)[C@@H](Cc2cccc(C(F)(F)F)c2)NCCOc2ccccc2CCCNC(=O)[C@H](CN(C)C)NC1=O` [Compound 502], the Ki in experiment [1] (Table 7, read-out: Binding Ki) is at most 0.01 µM. The “Contractile Potency (pA2)” value in experiment [2] worked out at 7.92.

As to `CCC[C@@H]1NC(=O)[C@@H](C(C)C)NC(=O)[C@@H](Cc2cccc(F)c2)N[C@@H](C)COc2ccccc2CCCNC1=O` [Compound 551], the Ki in experiment [1] (Table 7, read-out: Binding Ki) is at most 0.01 µM; in experiment [1] (setting [3]) it was at most 0.01 µM. For the same compound, the “Contractile Potency (pA2)” value in experiment [2] amounted to 8.29.

With `CCC[C@@H]1NC(=O)[C@@H](C(C)C)NC(=O)[C@@H](Cc2ccc(O)c(Cl)c2)N[C@@H](C)COc2ccccc2CCCNC1=O` [Compound 552], the inhibition constant Ki in experiment [1] (setting [3]) is at most 0.01 µM.

`CCC[C@@H]1NC(=O)[C@@H](C(C)C)NC(=O)[C@@H](Cc2ccc(O)c(C(C)(C)C)c2)NCCOc2ccccc2CCCNC1=O` [Compound 553]: the Ki is at most 0.01 µM in experiment [1] (Table 7, read-out: Binding Ki) and at most 0.01 µM in experiment [1] (setting [3]). Further, the “Contractile Potency (pA2)” value in experiment [2] is 8.71.

Usually Ki stands for a measure of affinity in units of concentration, obtained from inhibition or displacement.
